# From PMC7827406, “Structure–Activity Relationship (SAR) Study of Spautin-1 to Entail the Discovery of Novel NEK4 Inhibitors” (International Journal of Molecular Sciences, 2021)
# Where two headings read alike, the source gives them in different places.
# Columns and labels:
# Assay in all cases: biochemical
# Design in all cases: Eurofins KinaseProfiler full panel at Km ATP, residual kinase activity (%) relative to DMSO
# AMPKα2(h) = target: T1, AMPKα2(h) (Homo sapiens, UniProt P54646)
# T1 construct: gene PRKAA2
# T1 sequence (P54646 whole entry): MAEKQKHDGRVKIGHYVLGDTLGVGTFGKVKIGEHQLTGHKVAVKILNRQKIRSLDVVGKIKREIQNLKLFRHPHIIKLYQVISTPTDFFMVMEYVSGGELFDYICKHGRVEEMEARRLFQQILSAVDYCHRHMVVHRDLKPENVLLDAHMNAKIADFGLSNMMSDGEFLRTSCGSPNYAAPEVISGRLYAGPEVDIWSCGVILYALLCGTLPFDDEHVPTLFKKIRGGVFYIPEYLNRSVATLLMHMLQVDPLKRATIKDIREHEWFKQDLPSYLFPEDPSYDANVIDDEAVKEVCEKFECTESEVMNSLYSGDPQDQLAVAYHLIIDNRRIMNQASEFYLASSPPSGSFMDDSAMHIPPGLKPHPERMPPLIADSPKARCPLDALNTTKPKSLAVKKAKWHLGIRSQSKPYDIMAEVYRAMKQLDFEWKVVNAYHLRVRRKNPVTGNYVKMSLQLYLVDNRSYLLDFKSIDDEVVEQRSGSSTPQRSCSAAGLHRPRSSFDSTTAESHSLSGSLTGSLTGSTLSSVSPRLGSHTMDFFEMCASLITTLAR
# T1 sequence (P54619 whole entry partner): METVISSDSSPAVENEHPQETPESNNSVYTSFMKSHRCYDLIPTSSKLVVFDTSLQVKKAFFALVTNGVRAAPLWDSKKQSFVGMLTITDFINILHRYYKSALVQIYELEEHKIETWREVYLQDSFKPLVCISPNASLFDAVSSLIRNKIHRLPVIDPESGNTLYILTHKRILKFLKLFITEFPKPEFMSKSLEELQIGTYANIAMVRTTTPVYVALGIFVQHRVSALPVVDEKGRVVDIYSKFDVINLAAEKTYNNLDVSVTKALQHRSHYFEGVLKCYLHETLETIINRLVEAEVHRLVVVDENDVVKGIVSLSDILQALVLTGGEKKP
# T1 sequence (Q9Y478 whole entry partner): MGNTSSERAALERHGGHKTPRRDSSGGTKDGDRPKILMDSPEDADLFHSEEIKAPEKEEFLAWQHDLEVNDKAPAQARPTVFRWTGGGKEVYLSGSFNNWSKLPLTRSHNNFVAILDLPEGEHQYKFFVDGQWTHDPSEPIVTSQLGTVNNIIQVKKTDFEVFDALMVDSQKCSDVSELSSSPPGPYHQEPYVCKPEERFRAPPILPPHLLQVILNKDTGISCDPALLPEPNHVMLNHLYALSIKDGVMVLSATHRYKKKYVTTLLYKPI
# Procedure, shortened: (§1)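 Compounds screened at 10 µM in radiometric kinase activity assays at Km ATP, reported as remaining kinase activity (%). A KINOMEscan competition-binding screen at 10 µM measured DNA-tagged kinase retained on immobilized active-site ligand by qPCR.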
# CDKL1(h) = CDKL1(h) (Homo sapiens, UniProt Q00532)
# CDKL1(h), sequence (Q00532 whole entry): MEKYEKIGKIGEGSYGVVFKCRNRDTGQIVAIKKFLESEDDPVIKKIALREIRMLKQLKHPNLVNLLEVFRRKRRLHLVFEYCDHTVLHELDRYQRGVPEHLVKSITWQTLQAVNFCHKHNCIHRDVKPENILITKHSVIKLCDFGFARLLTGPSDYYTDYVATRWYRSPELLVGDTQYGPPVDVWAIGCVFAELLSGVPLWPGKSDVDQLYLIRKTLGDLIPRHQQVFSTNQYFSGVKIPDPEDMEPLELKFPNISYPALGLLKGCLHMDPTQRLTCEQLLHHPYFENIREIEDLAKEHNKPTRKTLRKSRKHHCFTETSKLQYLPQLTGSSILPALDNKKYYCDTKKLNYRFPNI
# Procedure, shortened: as §1
# CK1γ1(h) = target: T2, CK1γ1(h) (Homo sapiens, UniProt Q9HCP0)
# T2 construct: gene CSNK1G1
# T2 sequence (Q9HCP0 whole entry): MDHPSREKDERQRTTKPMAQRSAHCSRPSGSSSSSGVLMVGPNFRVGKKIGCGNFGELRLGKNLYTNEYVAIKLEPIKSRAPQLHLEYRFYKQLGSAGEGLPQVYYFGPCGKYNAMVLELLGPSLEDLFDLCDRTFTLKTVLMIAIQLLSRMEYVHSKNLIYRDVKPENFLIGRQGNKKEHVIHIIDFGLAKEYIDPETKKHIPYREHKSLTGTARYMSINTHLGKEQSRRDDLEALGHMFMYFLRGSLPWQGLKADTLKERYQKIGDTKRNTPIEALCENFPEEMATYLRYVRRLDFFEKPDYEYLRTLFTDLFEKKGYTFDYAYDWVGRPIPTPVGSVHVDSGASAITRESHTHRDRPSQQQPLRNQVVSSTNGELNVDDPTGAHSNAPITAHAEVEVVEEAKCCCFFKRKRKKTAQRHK
# Procedure, shortened: as §1
# CaMKK1(h) = CaMKK1(h) (Homo sapiens, UniProt Q8N5S9)
# CaMKK1(h), sequence (Q8N5S9 whole entry): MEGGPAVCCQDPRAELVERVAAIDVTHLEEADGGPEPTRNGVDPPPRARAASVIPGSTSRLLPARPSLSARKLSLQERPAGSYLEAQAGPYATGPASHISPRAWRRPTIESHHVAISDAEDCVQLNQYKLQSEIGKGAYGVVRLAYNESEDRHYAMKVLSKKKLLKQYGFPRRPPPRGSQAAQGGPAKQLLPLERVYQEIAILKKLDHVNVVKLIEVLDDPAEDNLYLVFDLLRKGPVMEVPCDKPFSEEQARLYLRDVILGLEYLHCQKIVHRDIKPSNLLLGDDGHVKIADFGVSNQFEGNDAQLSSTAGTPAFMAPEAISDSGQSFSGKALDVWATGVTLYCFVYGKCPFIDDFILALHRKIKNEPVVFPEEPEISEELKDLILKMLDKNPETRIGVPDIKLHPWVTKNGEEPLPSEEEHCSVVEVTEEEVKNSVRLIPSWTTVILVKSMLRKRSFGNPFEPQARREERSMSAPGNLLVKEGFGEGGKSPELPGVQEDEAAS
# Procedure, shortened: as §1
# Lck(h) activated = Lck(h) activated (Homo sapiens, UniProt P06239)
# Lck(h) activated, sequence (P06239 whole entry): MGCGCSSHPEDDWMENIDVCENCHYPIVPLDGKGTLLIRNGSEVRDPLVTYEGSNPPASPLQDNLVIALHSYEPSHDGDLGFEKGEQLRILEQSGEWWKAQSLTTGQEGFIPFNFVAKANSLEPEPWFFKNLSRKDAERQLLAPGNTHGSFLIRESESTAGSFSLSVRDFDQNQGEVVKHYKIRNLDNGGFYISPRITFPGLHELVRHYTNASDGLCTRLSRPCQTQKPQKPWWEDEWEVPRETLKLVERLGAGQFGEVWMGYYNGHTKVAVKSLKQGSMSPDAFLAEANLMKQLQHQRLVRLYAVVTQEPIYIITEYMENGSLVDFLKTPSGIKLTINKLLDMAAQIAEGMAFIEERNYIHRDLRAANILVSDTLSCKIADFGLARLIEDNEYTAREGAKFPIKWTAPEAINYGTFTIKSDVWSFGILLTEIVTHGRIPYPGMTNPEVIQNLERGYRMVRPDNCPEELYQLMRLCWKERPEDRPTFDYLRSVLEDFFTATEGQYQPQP
# Procedure, shortened: as §1
# NUAK2(h) = target: T3, NUAK2(h) (Homo sapiens, UniProt Q9H093)
# T3 sequence (Q9H093 1-628): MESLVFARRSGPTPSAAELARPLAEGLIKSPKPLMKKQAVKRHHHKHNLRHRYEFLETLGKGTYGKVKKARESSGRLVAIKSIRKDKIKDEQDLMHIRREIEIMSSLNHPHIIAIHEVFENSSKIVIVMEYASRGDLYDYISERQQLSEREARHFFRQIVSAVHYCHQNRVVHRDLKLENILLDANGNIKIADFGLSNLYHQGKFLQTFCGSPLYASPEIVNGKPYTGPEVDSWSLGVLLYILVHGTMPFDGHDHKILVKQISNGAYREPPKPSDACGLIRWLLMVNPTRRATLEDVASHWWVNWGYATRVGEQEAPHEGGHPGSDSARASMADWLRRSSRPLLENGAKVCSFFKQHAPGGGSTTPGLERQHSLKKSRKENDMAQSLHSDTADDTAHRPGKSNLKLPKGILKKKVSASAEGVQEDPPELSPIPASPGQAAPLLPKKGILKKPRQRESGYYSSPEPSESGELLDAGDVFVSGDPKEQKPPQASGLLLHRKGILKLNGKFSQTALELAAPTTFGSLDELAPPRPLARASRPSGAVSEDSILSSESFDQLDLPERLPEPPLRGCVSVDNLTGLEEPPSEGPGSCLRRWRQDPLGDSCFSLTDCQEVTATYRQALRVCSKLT
# Procedure, shortened: as §1
# [1] = target: T4, PI3 Kinase (p110a/p85a)(m) (Mus musculus, UniProt P42337)
# T4 construct: gene Pik3ca
# T4 sequence (P42337 whole entry): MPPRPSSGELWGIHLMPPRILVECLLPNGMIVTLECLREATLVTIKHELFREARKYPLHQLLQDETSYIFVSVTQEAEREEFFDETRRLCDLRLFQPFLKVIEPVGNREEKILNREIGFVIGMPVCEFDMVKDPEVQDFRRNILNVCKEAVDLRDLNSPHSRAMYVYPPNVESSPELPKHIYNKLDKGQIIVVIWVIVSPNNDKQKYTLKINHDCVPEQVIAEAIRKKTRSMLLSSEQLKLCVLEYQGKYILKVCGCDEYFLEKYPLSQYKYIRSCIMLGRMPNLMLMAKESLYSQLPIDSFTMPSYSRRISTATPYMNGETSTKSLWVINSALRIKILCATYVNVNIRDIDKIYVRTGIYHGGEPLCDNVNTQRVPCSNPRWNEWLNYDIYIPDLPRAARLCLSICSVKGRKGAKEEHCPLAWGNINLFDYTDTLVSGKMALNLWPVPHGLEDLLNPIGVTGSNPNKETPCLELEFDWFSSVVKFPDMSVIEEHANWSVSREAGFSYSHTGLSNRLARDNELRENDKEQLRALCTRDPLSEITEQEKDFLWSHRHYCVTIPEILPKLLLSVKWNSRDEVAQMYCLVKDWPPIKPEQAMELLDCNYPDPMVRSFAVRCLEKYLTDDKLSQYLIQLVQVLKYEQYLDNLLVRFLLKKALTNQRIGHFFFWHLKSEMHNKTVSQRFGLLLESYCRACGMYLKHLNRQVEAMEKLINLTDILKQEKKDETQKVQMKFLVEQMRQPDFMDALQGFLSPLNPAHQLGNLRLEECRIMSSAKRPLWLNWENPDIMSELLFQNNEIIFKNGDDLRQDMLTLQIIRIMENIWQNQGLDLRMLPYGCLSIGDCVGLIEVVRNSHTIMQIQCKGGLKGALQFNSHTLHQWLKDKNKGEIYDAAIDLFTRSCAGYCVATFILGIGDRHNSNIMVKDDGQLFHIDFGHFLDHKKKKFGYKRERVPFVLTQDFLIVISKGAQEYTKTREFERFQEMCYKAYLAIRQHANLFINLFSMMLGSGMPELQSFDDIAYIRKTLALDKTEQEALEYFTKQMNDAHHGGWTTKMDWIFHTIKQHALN
# T4 sequence (P26450 whole entry partner): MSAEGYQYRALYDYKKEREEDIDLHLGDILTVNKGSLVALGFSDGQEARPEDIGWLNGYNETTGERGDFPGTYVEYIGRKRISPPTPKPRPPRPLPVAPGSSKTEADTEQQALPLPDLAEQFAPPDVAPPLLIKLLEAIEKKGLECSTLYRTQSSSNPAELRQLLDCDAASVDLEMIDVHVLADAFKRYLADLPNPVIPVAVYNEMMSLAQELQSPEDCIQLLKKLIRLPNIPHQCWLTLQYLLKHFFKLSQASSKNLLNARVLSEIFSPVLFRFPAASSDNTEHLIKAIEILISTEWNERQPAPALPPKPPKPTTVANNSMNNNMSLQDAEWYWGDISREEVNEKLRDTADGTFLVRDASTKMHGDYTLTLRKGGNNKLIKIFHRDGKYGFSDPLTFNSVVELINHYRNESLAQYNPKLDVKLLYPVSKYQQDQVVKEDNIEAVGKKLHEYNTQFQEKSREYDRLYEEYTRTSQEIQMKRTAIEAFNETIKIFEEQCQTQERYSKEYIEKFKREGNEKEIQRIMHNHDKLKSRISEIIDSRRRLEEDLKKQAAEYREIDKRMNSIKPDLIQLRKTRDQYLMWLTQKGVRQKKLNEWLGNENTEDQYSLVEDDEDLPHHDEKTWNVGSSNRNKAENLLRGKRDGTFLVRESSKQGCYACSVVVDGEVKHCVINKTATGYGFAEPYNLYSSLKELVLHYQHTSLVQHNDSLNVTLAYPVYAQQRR
# Procedure, shortened: as §1
# TTBK2(h) = TTBK2(h) (Homo sapiens, UniProt Q6IQ55)
# Procedure, shortened: as §1
# Txk(h) = target: T5, Txk(h) (Homo sapiens, UniProt P42681)
# T5 sequence (P42681 1-527): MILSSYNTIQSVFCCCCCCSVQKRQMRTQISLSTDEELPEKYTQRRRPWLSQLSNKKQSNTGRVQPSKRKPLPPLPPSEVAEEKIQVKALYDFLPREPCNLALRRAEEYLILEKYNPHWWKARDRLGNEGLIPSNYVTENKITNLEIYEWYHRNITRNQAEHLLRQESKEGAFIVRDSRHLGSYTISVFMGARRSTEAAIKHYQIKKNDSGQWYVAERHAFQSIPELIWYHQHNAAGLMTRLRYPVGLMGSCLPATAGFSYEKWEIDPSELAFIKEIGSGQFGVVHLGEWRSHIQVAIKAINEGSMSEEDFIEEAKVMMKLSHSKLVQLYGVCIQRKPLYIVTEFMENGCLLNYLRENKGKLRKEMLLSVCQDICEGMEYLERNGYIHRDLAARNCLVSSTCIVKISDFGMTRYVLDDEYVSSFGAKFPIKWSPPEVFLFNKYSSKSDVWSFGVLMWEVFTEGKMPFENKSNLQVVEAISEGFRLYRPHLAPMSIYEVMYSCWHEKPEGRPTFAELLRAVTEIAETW
# Procedure, shortened: as §1
# [2] = read-out: Residual activity (%) 5ay
# [3] = read-out: Residual activity (%) Spautin-1 5aa
# [4] = read-out: Residual activity (%) 5at
# [5] = read-out: Residual activity (%) 5as
structure (smiles),measurement,setting,value
"COc1ccc2ncnc(Nc3cccc(F)c3)c2c1 [5ay, N-(3-Fluorophenyl)-6-Methoxy-4-Quinazolinamine]",remaining activity at 10 µM,AMPKα2(h); [2],97%
same,remaining activity at 10 µM,CDKL1(h); [2],119%
same,remaining activity at 10 µM,CK1γ1(h); [2],94%
same,remaining activity at 10 µM,CaMKK1(h); [2],90%
same,remaining activity at 10 µM,Lck(h) activated; [2],73%
same,remaining activity at 10 µM,NUAK2(h); [2],110%
same,remaining activity at 10 µM,[1]; [2],84%
same,remaining activity at 10 µM,TTBK2(h); [2],114%
same,remaining activity at 10 µM,Txk(h); [2],85%
"Fc1ccc(CNc2ncnc3ccc(F)cc23)cc1 [5aa, 6-Fluoro-N-(4-fluorobenzyl)-4-Quinazolinamine]",remaining activity at 10 µM,AMPKα2(h); [3],108%
same,remaining activity at 10 µM,CDKL1(h); [3],94%
same,remaining activity at 10 µM,CK1γ1(h); [3],99%
same,remaining activity at 10 µM,CaMKK1(h); [3],96%
same,remaining activity at 10 µM,Lck(h) activated; [3],93%
same,remaining activity at 10 µM,NUAK2(h); [3],121%
same,remaining activity at 10 µM,[1]; [3],86%
same,remaining activity at 10 µM,TTBK2(h); [3],117%
same,remaining activity at 10 µM,Txk(h); [3],92%
"Fc1ccc2ncnc(NCCc3ccc(Cl)cc3)c2c1 [5at, N-[2-(4-Chlorophenyl)Ethyl]-6-Fluoro-4-Quinazolinamine]",remaining activity at 10 µM,AMPKα2(h); [4],109%
same,remaining activity at 10 µM,CDKL1(h); [4],111%
same,remaining activity at 10 µM,CK1γ1(h); [4],80%
same,remaining activity at 10 µM,CaMKK1(h); [4],91%
same,remaining activity at 10 µM,Lck(h) activated; [4],91%
same,remaining activity at 10 µM,NUAK2(h); [4],117%
same,remaining activity at 10 µM,[1]; [4],82%
same,remaining activity at 10 µM,TTBK2(h); [4],111%
same,remaining activity at 10 µM,Txk(h); [4],82%
"Fc1ccc(CCNc2ncnc3ccc(F)cc23)cc1 [5as, 6-Fluoro-N-[2-(4-Fluorophenyl)Ethyl]-4-Quinazolinamine]",remaining activity at 10 µM,AMPKα2(h); [5],108%
same,remaining activity at 10 µM,CDKL1(h); [5],111%
same,remaining activity at 10 µM,CK1γ1(h); [5],80%
same,remaining activity at 10 µM,CaMKK1(h); [5],99%
same,remaining activity at 10 µM,Lck(h) activated; [5],100%
same,remaining activity at 10 µM,NUAK2(h); [5],112%
same,remaining activity at 10 µM,[1]; [5],83%
same,remaining activity at 10 µM,TTBK2(h); [5],107%
same,remaining activity at 10 µM,Txk(h); [5],83%
